# Where a SMILES comes first, the peptide text is derived from it. The star is where a group is joined. Cbz = O=C(OCc1ccccc1)*; CH2F = FC*
# Legend:
# [1] = system: Hela cells; assay: Immunofluorescence confocal microscopy of Omi in Hela cells; format: cell-based, human; conditions: staurosporine 1 μM, 5 hours; untreated cells mostly punctate and perinuclear
# [2] = system: Jurkat and HL-60 cells; assay: Release of Omi, Smac and cytochrome c to the cytosol and procaspase-3 processing (immunoblot of cytosolic extracts); format: cell-based, human; conditions: staurosporine 2 μM
# Procedure: FIG. 13 is a scanned image of a blot representing cytosolic extracts from human Jurkat and HL-60 cells bound to GST-BIR3 and immunoblotted with Omi (top panels), Smac (second panels), Cytochrome c (third panels), or caspase-3 (lower panels) antibodies.
# FIG. 14 is a scanned image of a blot representing cytosolic extracts of Jurkat cells treated with TRAIL (1 μg/ml) for the indicated time periods and analyzed by immunoblotting with Omi (top panel), Smac (middle panel), or cytochrome c (bottom panel) antibodies.
# To determine whether Omi is released together with Smac and cytochrome c from the mitochondria to the cytoplasm during apoptosis, we treated Jurkat and HL-60 cells with staurosporine (2 μM), which is known to induce the mitochondrial apoptotic pathway, and analyzed their cytosolic extracts by immunoblot analysis. […] Processing of procaspase-3 also followed a similar time course with maximum processing observed at 6-8 hours after treatment. Very little or no Omi or Smac proteins or processing of procaspase-3 were detected in the extracts at zero-time points.
# [3] = biological target: T1, XIAP-BIR3 (Homo sapiens, UniProt P98170); assay: GST-BIR3 precipitation of extracts of transfected 293T cells; format: binding; conditions: 24 hours after transfection
# T1 construct: Omi associates directly with the BIR3 domain of XIAP
# T1 sequence (P98170 238-358 limits assumed): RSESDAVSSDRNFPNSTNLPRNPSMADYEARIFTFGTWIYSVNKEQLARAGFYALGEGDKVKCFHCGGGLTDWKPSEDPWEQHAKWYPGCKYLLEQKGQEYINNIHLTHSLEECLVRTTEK
# Procedure: FIG. 24 is a scanned image of an immunoblot with Flag-HRP antibody of 293T cells extracts precipitated with GST-BIR3 24 hours after transfection with the indicated expression constructs extracts.
# (§1) Next, the contribution of the IAP binding activity of Omi to its proapoptotic activity was tested. The MTS of Omi was replaced with a GFP-IETD sequence and mutated at its active site Ser306 to Ala (FIG. 20, GFP-IETD-AVP). Of note, the presence of the IETD sequence between GFP and Omi-S/A allowed caspase-dependent cleavage at the IETD site after the Asp residue and release of mature Omi-S/A in the cytosol of the transfected 293 and MCF-7 cells (FIG. 23). […] Taken together, Omi not only can induce apoptosis through its serine protease activity but also via its ability to bind and neutralize IAPs.
# [4] = system: MCF-7 cells; assay: Apoptosis of MCF-7 cells transfected with cytosolic Omi-GFP fusion proteins; format: cell-based; conditions: zVAD-FMK 20 μM; MCF-7 cells transfected with M-Omi-GFP
# Procedure: FIG. 20 provides schematic diagrams of the Omi-GFP and GFP-IETD-Omi constructs used to assay the ability of Omi to induce apoptosis or to enhance apoptosis by other stimuli.
# FIG. 21 is a bar graphic representation of the percentages of GFP-positive apoptotic MCF-7 cells 36 hours following transfection with M-Omi-S/A-GFP or pEGFP-N1 alone or M-Omi-GFP together with empty vector or expression construct encoding XIAP, XIAP-BIR3, or caspase-9DN. The cells were also transfected with M-Omi-GFP expression construct in the presence of zVAD-FMK (20 μM).
# [5] = system: 293 and MCF-7 cells; assay: Caspase-dependent processing of GFP-IETD-Omi at the IETD site in transfected cells (immunoblot); format: cell-based; conditions: cytosolic extracts, zVAD-FMK 20 μM
# Procedure: FIG. 23 is a scanned image of an immunoblot with Flag-HRP antibody of MCF-7 and 293T cells 24 hours following transfected with pEGFP or M-Omi-Flag, GFP-IETD-AVP (AVP) or GFP-IETD-SSA (SSA) expression constructs in the presence or absence of zVAD-FMK (20μM). M-Omi-Flag is similar to the M-Omi-GFP shown in FIG. 20, except that the GFP tag was replaced with a Flag tag.
# as §1
molecule,measurement,setting,value
CN[C@@H]1C[C@H]2O[C@@](C)([C@@H]1OC)n1c3ccccc3c3c4c(c5c6ccccc6n2c5c31)C(=O)NC4 [staurosporine],immunofluorescence staining pattern of Omi,[1],showed diffused immunofluorescence staining of Omi
same,"accumulation of cytochrome c, Smac and Omi in the cytosol",[2],accumulated in the cytosol of these cells in a time dependent manner
same,time of maximum processing of procaspase-3 after treatment,[2],6 to 8 h
mature Omi-S/A: mature Omi-S/A released in the cytosol by caspase-dependent cleavage of GFP-IETD-AVP at the IETD site,binding to XIAP-BIR3 (GST-BIR3),[3],able to bind the GST-BIR3 fusion protein
"COC(=O)C[C@H](NC(=O)[C@H](C)NC(=O)[C@@H](NC(=O)OCc1ccccc1)C(C)C)C(=O)CF [zVAD-FMK, reference compound] (Cbz-Val-Ala-Asp(OMe)-CH2F)",block of M-Omi-GFP-induced apoptosis,[4],did not block the ability of M-Omi-GFP to induce apoptosis
same,processing at the IETD site,[5],very little or no processing at the IETD site was observed
